Experimental data: US8729089B2 (Gilead Sciences, Inc., priority 2006, dated 2014)

Columns and labels:
[1] = tested on: HCV replicon in human hepatoma Huh-7 cell line; test: Anti-HCV replicon assay (EC50, luciferase); assay type: cell-based; details: Hepatitis C virus, Huh-7, 72 h
Summary of the method: (§1)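 Cytotoxicity (CC50) measured by CellTiter-Glo and antiviral activity (EC50) by luciferase signal from lysed cells, both by luminescence. Replicon-bearing Huh-7 cells, 6000 per well, incubated 3 days at 37 °C with threefold-diluted compound (0.5% DMSO for DMSO-dissolved compounds).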

[2] = CC50 assay (CellTiter-Glo) in Huh-7 HCV replicon cells; assay type: cell-based, human; details: human, 3 days incubation, CellTiter-Glo readout
Summary of the method: as §1

Row | Compound | EC50 [1] [µM] | CC50 at 3 days [2] [µM]
1 | Fc1ccc(-c2ccc3nc(NCc4ccc(N5CCCC5)cc4)nc(NCC(F)(F)F)c3n2)cc1 [Example 239, 6-(4-Fluoro-phenyl)-N2-(4-pyrrolidin-1-yl-benzyl)-N4-(2,2,2-trifluoro-ethyl)-pyrido[3,2-d]pyrimidine-2,4-diamine] | < 0.1 | 5 to 25
2 | CN1CCN(c2ccc(CNc3nc(NCC(F)(F)F)c4nc(-c5ccc(F)cc5)ccc4n3)cc2)CC1 [Example 240, 6-(4-Fluoro-phenyl)-N2-[4-(4-methyl-piperazin-1-yl)-benzyl]-N4-(2,2,2-trifluoro-ethyl)-pyrido[3,2-d]pyrimidine-2,4-diamine] | < 0.1 | < 5
3 | CS(=O)(=O)Nc1ccc(CNc2nc(NCC(F)(F)F)c3nc(-c4ccc(F)cc4)ccc3n2)cc1 [Example 241, N-(4-{[6-(4-Fluoro-phenyl)-4-(2,2,2-trifluoro-ethylamino)-pyrido[3,2-d]pyrimidin-2-ylamino]-methyl}-phenyl)-methanesulfonamide] | < 0.1 | 5 to 25
4 | CN(C)C(=O)c1ccc(CNc2nc(NCC(F)(F)F)c3nc(-c4ccc(F)cc4)ccc3n2)cc1 [Example 242, 4-{[6-(4-Fluoro-phenyl)-4-(2,2,2-trifluoro-ethylamino)-pyrido[3,2-d]pyrimidin-2-ylamino]-methyl}-N,N-dimethyl-benzamide] | < 0.1 | > 25
5 | Fc1ccc(-c2ccc3nc(NCc4ccccn4)nc(NCC(F)(F)F)c3n2)cc1 [Example 243, 6-(4-Fluoro-phenyl)-N2-pyridin-2-ylmethyl-N4-(2,2,2-trifluoro-ethyl)-pyrido[3,2-d]pyrimidine-2,4-diamine] | < 0.1 | 5 to 25
6 | Fc1ccc(-c2ccc3nc(NCc4cccnc4)nc(NCC(F)(F)F)c3n2)cc1 [Example 244, 6-(4-Fluoro-phenyl)-N2-pyridin-3-ylmethyl-N4-(2,2,2-trifluoro-ethyl)-pyrido[3,2-d]pyrimidine-2,4-diamine] | < 0.1 | 5 to 25
7 | Fc1ccc(-c2ccc3nc(NCc4ccc(-c5csnn5)cc4)nc(NCC(F)(F)F)c3n2)cc1 [Example 245, 6-(4-Fluoro-phenyl)-N2-(4-[1,2,3]thiadiazol-4-yl-benzyl)-N4-(2,2,2-trifluoro-ethyl)-pyrido[3,2-d]pyrimidine-2,4-diamine] | < 0.1 | > 25
8 | NS(=O)(=O)c1ccc(CNc2nc(NCC(F)(F)F)c3nc(-c4ccc(F)cc4)ccc3n2)c(F)c1 [Example 246, 3-Fluoro-4-{[6-(4-fluoro-phenyl)-4-(2,2,2-trifluoro-ethylamino)-pyrido[3,2-d]pyrimidin-2-ylamino]-methyl}-benzenesulfonamide] | < 0.1 | 5 to 25
9 | Fc1ccc(-c2ccc3nc(NCc4nnco4)nc(NCC(F)(F)F)c3n2)cc1 [Example 247, 6-(4-Fluoro-phenyl)-N2-[1,3,4]oxadiazol-2-ylmethyl-N4-(2,2,2-trifluoro-ethyl)-pyrido[3,2-d]pyrimidine-2,4-diamine] | < 0.1 | 5 to 25
10 | Fc1ccc(-c2ccc3nc(NCc4cncs4)nc(NCC(F)(F)F)c3n2)cc1 [Example 248, 6-(4-Fluoro-phenyl)-N2-thiazol-5-ylmethyl-N4-(2,2,2-trifluoro-ethyl)-pyrido[3,2-d]pyrimidine-2,4-diamine] | < 0.1 | 5 to 25
11 | CC(Nc1nc(NCC(F)(F)F)c2nc(-c3ccc(F)cc3)ccc2n1)c1ccc(S(N)(=O)=O)cc1 (centres unmarked) [Example 249, 4-{1-[6-(4-Fluoro-phenyl)-4-(2,2,2-trifluoro-ethylamino)-pyrido[3,2-d]pyrimidin-2-ylamino]-ethyl}-benzenesulfonamide] | < 0.1 | < 5
12 | Fc1ccc(-c2ccc3nc(NCc4ccc(-n5cncn5)cc4)nc(NCC(F)(F)F)c3n2)cc1 [Example 251, 6-(4-Fluoro-phenyl)-N2-(4-[1,2,4]triazol-1-yl-benzyl)-N4-(2,2,2-trifluoro-ethyl)-pyrido[3,2-d]pyrimidine-2,4-diamine] | < 0.1 | > 25
13 | COCCNc1nc(NCC(F)(F)F)c2nc(-c3ccc(F)cc3)ccc2n1 [Example 252, 6-(4-Fluoro-phenyl)-N2-(2-methoxy-ethyl)-N4-(2,2,2-trifluoro-ethyl)-pyrido[3,2-d]pyrimidine-2,4-diamine] | < 0.1 | 5 to 25
14 | Fc1ccc(-c2ccc3nc(NCc4ncco4)nc(NCC(F)(F)F)c3n2)cc1 [Example 253, 6-(4-Fluoro-phenyl)-N2-oxazol-2-ylmethyl-N4-(2,2,2-trifluoro-ethyl)-pyrido[3,2-d]pyrimidine-2,4-diamine] | < 0.1 | < 5
15 | Fc1ccc(-c2ccc3nc(NCCn4cncn4)nc(NCC(F)(F)F)c3n2)cc1 [Example 254, 6-(4-Fluoro-phenyl)-N2-(2-[1,2,4]triazol-1-yl-ethyl)-N4-(2,2,2-trifluoro-ethyl)-pyrido[3,2-d]pyrimidine-2,4-diamine] | < 0.1 | > 25
16 | CC(Nc1nc(NCC(F)(F)F)c2nc(-c3ccc(F)cc3)ccc2n1)c1ccc(-n2cncn2)cc1 (centres unmarked) [Example 255, 6-(4-Fluoro-phenyl)-N2-[1-(4-[1,2,4]triazol-1-yl-phenyl)-ethyl]-N4-(2,2,2-trifluoro-ethyl)-pyrido[3,2-d]pyrimidine-2,4-diamine] | < 0.1 | 5 to 25

Row | Compound | EC50 [1] [µM] | CC50 at 3 days [2] [µM]
17 | CCOP(=O)(CCNc1nc(NCC(F)(F)F)c2nc(-c3ccc(F)cc3)ccc2n1)OCC [Example 256, {2-[6-(4-Fluoro-phenyl)-4-(2,2,2-trifluoro-ethylamino)-pyrido[3,2-d]pyrimidin-2-ylamino]-ethyl}-phosphonic acid diethyl ester] | < 0.1 | 5 to 25
18 | Fc1ccc(-c2ccc3nc(NCCN4CCOCC4)nc(NCC(F)(F)F)c3n2)cc1 [Example 258, 6-(4-Fluoro-phenyl)-N2-(2-morpholin-4-yl-ethyl)-N4-(2,2,2-trifluoro-ethyl)-pyrido[3,2-d]pyrimidine-2,4-diamine] | < 0.1 | < 5
19 | NS(=O)(=O)CCNc1nc(NCC(F)(F)F)c2nc(-c3ccc(F)cc3)ccc2n1 [Example 259, 2-[6-(4-Fluoro-phenyl)-4-(2,2,2-trifluoro-ethylamino)-pyrido[3,2-d]pyrimidin-2-ylamino]-ethanesulfonic acid amide] | < 0.1 | 5 to 25
20 | NC(=O)CCNc1nc(NCC(F)(F)F)c2nc(-c3ccc(F)cc3)ccc2n1 [Example 260, 3-[6-(4-Fluoro-phenyl)-4-(2,2,2-trifluoro-ethylamino)-pyrido[3,2-d]pyrimidin-2-ylamino]-propionamide] | < 0.1 | 5 to 25
21 | NC(=O)c1ccc(CNc2nc(NCC(F)(F)F)c3nc(-c4ccc(F)cc4)ccc3n2)cc1 [Example 261, 4-{[6-(4-Fluoro-phenyl)-4-(2,2,2-trifluoro-ethylamino)-pyrido[3,2-d]pyrimidin-2-ylamino]-methyl}-benzamide] | < 0.1 | < 5
22 | CCOc1nc(NCc2ccc(C(=O)N(C)C)cc2)nc2ccc(-c3ccc(F)cc3)nc12 [Example 262, 4-{[4-Ethoxy-6-(4-fluoro-phenyl)-pyrido[3,2-d]pyrimidin-2-ylamino]-methyl}-N,N-dimethyl-benzamide] | < 0.1 | > 25
23 | CCOc1nc(NCc2cccnc2)nc2ccc(-c3ccc(F)cc3)nc12 [Example 263, [4-Ethoxy-6-(4-fluoro-phenyl)-pyrido[3,2-d]pyrimidin-2-yl]-pyridin-3-ylmethyl-amine] | < 0.1 | > 25
24 | CCOc1nc(NCCOC)nc2ccc(-c3ccc(F)cc3)nc12 [Example 264, [4-Ethoxy-6-(4-fluoro-phenyl)-pyrido[3,2-d]pyrimidin-2-yl]-(2-methoxy-ethyl)-amine] | < 0.1 | > 25
25 | CCOc1nc(NCCS(N)(=O)=O)nc2ccc(-c3ccc(F)cc3)nc12 [Example 265, 2-[4-Ethoxy-6-(4-fluoro-phenyl)-pyrido[3,2-d]pyrimidin-2-ylamino]-ethanesulfonic acid amide] | < 0.1 | 5 to 25
26 | CCOc1nc(NCc2ncco2)nc2ccc(-c3ccc(F)cc3)nc12 [Example 266, [4-Ethoxy-6-(4-fluoro-phenyl)-pyrido[3,2-d]pyrimidin-2-yl]-oxazol-2-ylmethyl-amine] | < 0.1 | > 25
27 | CCOc1nc(NCc2ccc(-n3cncn3)cc2)nc2ccc(-c3ccc(F)cc3)nc12 [Example 267, [4-Ethoxy-6-(4-fluoro-phenyl)-pyrido[3,2-d]pyrimidin-2-yl]-(4-[1,2,4]triazol-1-yl-benzyl)-amine] | < 0.1 | > 25
28 | CCOc1nc(NCc2ccc(C(N)=O)cc2)nc2ccc(-c3ccc(F)cc3)nc12 [Example 268, 4-{[4-Ethoxy-6-(4-fluoro-phenyl)-pyrido[3,2-d]pyrimidin-2-ylamino]-methyl}-benzamide] | < 0.1 | 5 to 25
29 | CCOc1nc(NCc2ccc(CS(=O)(=O)NC)cc2)nc2ccc(-c3ccc(F)cc3)nc12 [Example 269, C-(4-{[4-Ethoxy-6-(4-fluoro-phenyl)-pyrido[3,2-d]pyrimidin-2-ylamino]-methyl}-phenyl)-N-methyl-methanesulfonamide] | < 0.1 | 5 to 25
30 | CCOc1nc(NCc2ccc(CS(N)(=O)=O)cc2)nc2ccc(-c3ccc(F)cc3)nc12 [Example 270] | < 0.1 | 5 to 25
31 | CCOc1nc(NCc2ccc(NS(C)(=O)=O)cc2)nc2ccc(-c3ccc(F)cc3)nc12 [Example 271, N-(4-{[4-Ethoxy-6-(4-fluoro-phenyl)-pyrido[3,2-d]pyrimidin-2-ylamino]-methyl}-phenyl)-methanesulfonamide] | < 0.1 | 5 to 25
